In patent US9833497B2, “Human originated EGF domain proteins and use of the same” (CHENGDU SOURCEBIO LIMITED-LIABILITY COMPANY, priority 2013, dated 2017):

Assays:
Type in all cases: cell-based
E. coli BL21 = test: MIC against Gram-negative bacteria: E. coli BL21; conditions: 5×10^5 CFU/mL
Outline: (§1)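 Purified recombinant human EGF domain proteins are tested by broth dilution in LB against a 5×10^5 CFU/mL inoculum, with two-fold serial dilutions run in triplicate. Plates are incubated at 37° C with shaking, and the MIC is read as the lowest protein concentration without growth.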

Moraxella catarrhalis = test: MIC against Gram-negative bacteria: Moraxella catarrhalis; conditions: 5×10^5 CFU/mL
Outline: as §1

Klebsiella pneumonia = test: MIC against Gram-negative bacteria: Klebsiella pneumonia; conditions: 5×10^5 CFU/mL
Outline: as §1

Serratia marcescens = test: MIC against Gram-negative bacteria: Serratia marcescens; conditions: 5×10^5 CFU/mL
Outline: as §1

Proteus vulgaris = test: MIC against Gram-negative bacteria: Proteus vulgaris; conditions: 5×10^5 CFU/mL
Outline: as §1

Aeromonas hydrophila = test: MIC against Gram-negative bacteria: Aeromonas hydrophila; conditions: 5×10^5 CFU/mL
Outline: as §1

Pseudomonas aeruginosa = test: MIC against Gram-negative bacteria: Pseudomonas aeruginosa; conditions: 5×10^5 CFU/mL
Outline: as §1

Enterobacter cloacae = test: MIC against Gram-negative bacteria: Enterobacter cloacae; conditions: 5×10^5 CFU/mL
Outline: as §1

E. coli DH5α = test: Antibacterial activity: MIC and growth curve against E. coli DH5α in 96-well plate; conditions: minimal inhibitory concentration against E. coli DH5α; 96-well plate, 5×10^5 CFU/mL, 37° C., judged after 8 h
Outline: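 Log-phase bacteria (OD600 ~0.5) resuspended in LB at 5×10^5 CFU/mL, exposed to recombinant protein at 50, 25, 12.5 μg/mL final in triplicate, 37 °C shaking at 175 rpm. OD600 read every 30 min; MIC is lowest concentration showing no growth.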

Proteus mirabilis = test: MIC against Gram-negative bacteria: Proteus mirabilis; conditions: 5×10^5 CFU/mL
Outline: as §1

Citrobacter diversus = test: MIC against Gram-negative bacteria: Citrobacter diversus; conditions: 5×10^5 CFU/mL
Outline: as §1

[1] = E. coli BL21, 96-well plate, 37° C., 10 h
[2] = Moraxella catarrhalis, 96-well plate, 37° C., 10 h
[3] = Klebsiella pneumonia, 96-well plate, 37° C., 10 h
[4] = Serratia marcescens, 96-well plate, 37° C., 10 h
[5] = Proteus vulgaris, 96-well plate, 37° C., 10 h
[6] = Aeromonas hydrophila, 96-well plate, 37° C., 10 h
[7] = Pseudomonas aeruginosa, 96-well plate, 37° C., 10 h
[8] = Enterobacter cloacae, 96-well plate, 37° C., 10 h
[9] = Proteus mirabilis, 96-well plate, 37° C., 10 h
[10] = Citrobacter diversus, 96-well plate, 37° C., 10 h
[11] = 10 h cultivation at 37° C., two-fold serial dilution

Substance: PRT1244 (CGSTCPTCVQGSCDTVTGDCVCSAGYWGPSCN; listed as Homo sapiens)
- MIC against E. coli BL21 (E. coli BL21; [1]): 12.5 µg/mL
- MIC against M. catarrhalis (Moraxella catarrhalis; [2]): 12.5 µg/mL
- MIC against K. pneumonia (Klebsiella pneumonia; [3]): 12.5 µg/mL
- MIC against S. marcescens (Serratia marcescens; [4]): 12.5 µg/mL
- MIC against P. vulgaris (Proteus vulgaris; [5]): 50 µg/mL
- MIC against A. hydrophila (Aeromonas hydrophila; [6]): 50 µg/mL
- MIC against P. aeruginosa (Pseudomonas aeruginosa; [7]): 50 µg/mL
- MIC against E. cloacae (Enterobacter cloacae; [8]): 12.5 µg/mL
- MIC (E. coli DH5α): 50 µg/mL
- MIC against P. mirabilis (Proteus mirabilis; [9]): 25 µg/mL
- MIC against C. diversus (Citrobacter diversus; [10]): 25 µg/mL

Substance: PRT1241 (WSSTCRRPCQCNTAAARCEQATGACVCKPGWWGRRCS; listed as Homo sapiens)
- MIC against E. coli BL21 (E. coli BL21; [1]): 25 µg/mL
- MIC against M. catarrhalis (Moraxella catarrhalis; [2]): 25 µg/mL
- MIC against K. pneumonia (Klebsiella pneumonia; [3]): 50 µg/mL
- MIC against S. marcescens (Serratia marcescens; [4]): 12.5 µg/mL
- MIC against P. vulgaris (Proteus vulgaris; [5]): 25 µg/mL
- MIC against A. hydrophila (Aeromonas hydrophila; [6]): 50 µg/mL
- MIC against P. aeruginosa (Pseudomonas aeruginosa; [7]): 12.5 µg/mL
- MIC against E. cloacae (Enterobacter cloacae; [8]): 12.5 µg/mL
- MIC (E. coli DH5α): 50 µg/mL
- MIC against P. mirabilis (Proteus mirabilis; [9]): 50 µg/mL
- MIC against C. diversus (Citrobacter diversus; [10]): 12.5 µg/mL

Substance: PRT1368 (EKRCPGDCSGHGFCDTGECYCEEGFTGLDCA; listed as Homo sapiens)
- MIC against E. coli BL21 (E. coli BL21; E. coli BL21, 10 h cultivation at 37° C.): 25 µg/mL
- MIC against M. catarrhalis (Moraxella catarrhalis; Moraxella catarrhalis, 10 h cultivation at 37° C.): 12.5 µg/mL
- MIC against K. pneumonia (Klebsiella pneumonia; Klebsiella pneumonia, 10 h cultivation at 37° C.): 25 µg/mL
- MIC against S. marcescens (Serratia marcescens; Serratia marcescens, 10 h cultivation at 37° C.): 12.5 µg/mL
- MIC against P. vulgaris (Proteus vulgaris; Proteus vulgaris, 10 h cultivation at 37° C.): 12.5 µg/mL
- MIC against A. hydrophila (Aeromonas hydrophila; Aeromonas hydrophila, 10 h cultivation at 37° C.): 25 µg/mL
- MIC against P. aeruginosa (Pseudomonas aeruginosa; Pseudomonas aeruginosa, 10 h cultivation at 37° C.): 12.5 µg/mL
- MIC against E. cloacae (Enterobacter cloacae; Enterobacter cloacae, 10 h cultivation at 37° C.): 12.5 µg/mL
- MIC (E. coli DH5α): 12.5 µg/mL
- MIC against P. mirabilis (Proteus mirabilis; Proteus mirabilis, 10 h cultivation at 37° C.): 12.5 µg/mL
- MIC against C. diversus (Citrobacter diversus; Citrobacter diversus, 10 h cultivation at 37° C.): 12.5 µg/mL

Substance: PRT481 (EITACSSSPCFHDGTCVLDKAGSYKCACLAGYTGQRCE; listed as Homo sapiens)
- MIC against E. coli BL21 (E. coli BL21; 96-well plate, 37° C., 10 h): 12.5 µg/mL
- MIC against M. catarrhalis (Moraxella catarrhalis; 96-well plate, 37° C., 10 h): 50 µg/mL
- MIC against K. pneumonia (Klebsiella pneumonia; 96-well plate, 37° C., 10 h): 50 µg/mL
- MIC against S. marcescens (Serratia marcescens; 96-well plate, 37° C., 10 h): 12.5 µg/mL
- MIC against P. vulgaris (Proteus vulgaris; 96-well plate, 37° C., 10 h): 50 µg/mL
- MIC against A. hydrophila (Aeromonas hydrophila; 96-well plate, 37° C., 10 h): 50 µg/mL
- MIC against P. aeruginosa (Pseudomonas aeruginosa; 96-well plate, 37° C., 10 h): 25 µg/mL
- MIC against E. cloacae (Enterobacter cloacae; 96-well plate, 37° C., 10 h): 12.5 µg/mL
- MIC (E. coli DH5α): 25 µg/mL
- MIC against P. mirabilis (Proteus mirabilis; 96-well plate, 37° C., 10 h): 12.5 µg/mL
- MIC against C. diversus (Citrobacter diversus; 96-well plate, 37° C., 10 h): 12.5 µg/mL

Substance: PRT696 (DVDECTQSPGLCGRGACKNLPGSFRCVCPAGFRGSACE; listed as Homo sapiens)
- MIC E. coli BL21 (E. coli BL21; 96-well plate, 37° C., 10 h): 25 µg/mL
- MIC M. catarrhalis (Moraxella catarrhalis; 96-well plate, 37° C., 10 h): 25 µg/mL
- MIC K. pneumonia (Klebsiella pneumonia; 96-well plate, 37° C., 10 h): 50 µg/mL
- MIC S. marcescens (Serratia marcescens; 96-well plate, 37° C., 10 h): 12.5 µg/mL
- MIC P. vulgaris (Proteus vulgaris; 96-well plate, 37° C., 10 h): 25 µg/mL
- MIC A. hydrophila (Aeromonas hydrophila; 96-well plate, 37° C., 10 h): 12.5 µg/mL
- MIC P. aeruginosa (Pseudomonas aeruginosa; 96-well plate, 37° C., 10 h): 12.5 µg/mL
- MIC E. cloacae (Enterobacter cloacae; 96-well plate, 37° C., 10 h): 25 µg/mL
- MIC (E. coli DH5α): 50 µg/mL
- MIC P. mirabilis (Proteus mirabilis; 96-well plate, 37° C., 10 h): 50 µg/mL
- MIC C. diversus (Citrobacter diversus; 96-well plate, 37° C., 10 h): 25 µg/mL

Substance: PRT1111 (SEDMCSPDPCFNGGTCLVTWNDFHCTCPANFTGPTCA; listed as Homo sapiens)
- MIC E. coli BL21 (E. coli BL21; [11]): 50 µg/mL
- MIC M. catarrhalis (Moraxella catarrhalis; [11]): 25 µg/mL
- MIC K. pneumonia (Klebsiella pneumonia; [11]): 50 µg/mL
- MIC S. marcescens (Serratia marcescens; [11]): 12.5 µg/mL
- MIC P. vulgaris (Proteus vulgaris; [11]): 25 µg/mL
- MIC A. hydrophila (Aeromonas hydrophila; [11]): 25 µg/mL
- MIC P. aeruginosa (Pseudomonas aeruginosa; [11]): 12.5 µg/mL
- MIC E. cloacae (Enterobacter cloacae; [11]): 25 µg/mL
- MIC (E. coli DH5α): 12.5 µg/mL
- MIC P. mirabilis (Proteus mirabilis; [11]): 50 µg/mL
- MIC C. diversus (Citrobacter diversus; [11]): 12.5 µg/mL

Substance: PRT89 (TNGQCHCKEFHYRPRGSDSCLPCDCYPVGSTSRSCA; listed as Homo sapiens)
- MIC (μg/mL) E. coli BL21 (E. coli BL21; [1]): 50 µg/mL
- MIC (μg/mL) M. catarrhalis (Moraxella catarrhalis; [2]): 12.5 µg/mL
- MIC (μg/mL) K. pneumonia (Klebsiella pneumonia; [3]): 12.5 µg/mL
- MIC (μg/mL) S. marcescens (Serratia marcescens; [4]): 12.5 µg/mL
- MIC (μg/mL) P. vulgaris (Proteus vulgaris; [5]): 50 µg/mL
- MIC (μg/mL) A. hydrophila (Aeromonas hydrophila; [6]): 50 µg/mL
- MIC (μg/mL) P. aeruginosa (Pseudomonas aeruginosa; [7]): 12.5 µg/mL
- MIC (μg/mL) E. cloacae (Enterobacter cloacae; [8]): 25 µg/mL
- MIC (E. coli DH5α): 25 µg/mL
- MIC (μg/mL) P. mirabilis (Proteus mirabilis; [9]): 25 µg/mL
- MIC (μg/mL) C. diversus (Citrobacter diversus; [10]): 25 µg/mL
